In paper PMC11393339, “Structure and mechanism of a phosphotransferase system glucose transporter” (Nature Communications, 2024):

Legend:
IICB^Glc [1] = molecular target: T1, IICB^Glc (Escherichia coli, UniProt P69786); assay: nanoDSF thermal shift (Tycho NT.[…]); assay type: binding; details: 10 mM ligand, 4 µM protein, 20 mM HEPES-NaOH pH 8.0, 150 mM NaCl, 5 mM β-ME, 0.02% DDM
T1 construct: gene ptsG; full-length wild type with decahistidine tag; overexpressed in E. coli BW25113 delta-arcB delta-ptsG; homodimer; purified in DDM (nanoDSF) or in MSP1E3D1/POPC nanodiscs (cryo-EM, IIB domain not resolved)

IICB^Glc [2] = molecular target: T1, IICB^Glc; assay: nanoDSF thermal shift (Tycho NT.[…]); assay type: binding; details: 10 mM ligand, 4 µM protein, 20 mM HEPES-NaOH pH 8.0, 150 mM NaCl, 5 mM β-ME, 0.02% DDM; remark: listed apart in the source

T1 sequence (P69786 whole entry, the tested form may be a part): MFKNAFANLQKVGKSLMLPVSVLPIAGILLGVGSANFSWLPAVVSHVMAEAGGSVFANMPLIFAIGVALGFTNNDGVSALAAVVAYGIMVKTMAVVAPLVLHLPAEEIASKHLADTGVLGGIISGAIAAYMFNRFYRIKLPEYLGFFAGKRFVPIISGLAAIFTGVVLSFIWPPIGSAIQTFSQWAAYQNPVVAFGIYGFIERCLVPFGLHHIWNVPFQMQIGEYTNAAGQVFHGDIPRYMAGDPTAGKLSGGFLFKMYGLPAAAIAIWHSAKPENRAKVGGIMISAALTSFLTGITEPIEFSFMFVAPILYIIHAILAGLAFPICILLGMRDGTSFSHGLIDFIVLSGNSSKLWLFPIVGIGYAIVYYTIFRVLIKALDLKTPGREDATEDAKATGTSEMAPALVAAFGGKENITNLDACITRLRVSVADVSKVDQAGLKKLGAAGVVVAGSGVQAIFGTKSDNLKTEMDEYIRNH

| ΔTi (IICB^Glc [2]) | Compound | ΔTi (IICB^Glc [1]) |
| --- | --- | --- |
|  | COC1O[C@H](CO)[C@@H](O)[C@H](O)[C@H]1O (stereo partly shown) [1-O-methyl-glucose] | 1-deoxy-glucose and 1-O-methyl-glucose bound best |
| ~ almost 10 °C | OC[C@H]1OC(O)[C@H](O)[C@@H](O)[C@@H]1O (stereo partly drawn) [D-glucose] |  |
|  | OC[C@H]1OC[C@H](O)[C@@H](O)[C@@H]1O [1-deoxy-glucose] | 1-deoxy-glucose and 1-O-methyl-glucose bound best |
|  | OC[C@H]1O[C@H](O[C@H]2[C@H](O)[C@@H](O)C(O)O[C@@H]2CO)[C@H](O)[C@@H](O)[C@@H]1O (stereo partly drawn) [D-maltose] | induced a slight stabilization of IICB^Glc |
